Patent US5679695A, “Aryl and heteroaryl compounds having anti-retrovirus activity” (The University of Connecticut, priority 1995, dated 1997)
Several values for one entry are separate records, joined by “and”; a condition that tells them apart may be missing. Equal entries are not always repeated. Where two headings read alike, the source gives them in different places.

How the values were obtained:
Assay type in all cases: cell-based
[1] = system: HIV-1; assay: microbe, parasite or virus in culture; settings: for viability at 17.9 µM: 1.79 × 10^-5 Molar
Procedure: (§1) Another assay for testing the efficacy of the compounds is the procedure* used in the National Cancer Institute's test for agents active against Human Immunodeficiency Virus (HIV). It is designed to detect agents acting at any stage of the virus reproductive cycle. The assay basically involves the killing of T4 lymphocytes by HIV. Small amounts of HIV are added to cells, and a complete cycle of virus reproduction is necessary to obtain the required cell killing. Agents that interact with virions, cells, or virus gene-products to interfere with viral activities will protect cells from cytolysis. The system is automated in several features to accommodate large numbers of candidate agents and is generally designed to detect anti-HIV activity. However, compounds that degenerate, or are rapidly metabolized in the culture conditions may not show activity in this screen. All tests are compared with at least one positive (e.g., AZT-treated) control done at the same time under identical conditions.
(§2) * Weislow. O. W., Kiser, R., Fine, D., Bader, J., Shoemaker, R. H., Boyd, M. R.: New soluble-formazan assay for HIV-1 cytopathic effects: application to high-flux screening of synthetic and natural products for AIDS-antiviral activity. J. Natl. Cancer Inst. 81:577-586, 1989.
(§3) 1. The Candidate agent is dissolved in dimethyl sulfoxide (unless otherwise instructed) then diluted 1:100 in cell culture medium before preparing serial half-log10 dilutions. T4 lymphocytes (CEM cell line) are added and after a brief interval HIV-1 added, resulting in a 1:200 final dilution of the compound. Uninfected cells with the compound serve as a toxicity control, and infected and uninfected cells without compound serve as basic controls.
(§4) 2. Cultures are incubated at 37° in a 5% carbon dioxide atmosphere for 6 days.
(§5) 3. The tetrazolium salt, XTT, is added to all wells, and cultures are incubated to allow formazan color development by viable cells.
(§6) 4. Individual wells are analyzed spectrophotometrically to quantitate formazan production, and in addition are viewed microscopically for detection of viable cells and confirmation of protective activity.
(§7) 5. Drug-treated virus-infected cells are compared with drug-treated noninfected cells and with other appropriate controls (untreated infected and untreated noninfected: cells, drug-containing wells without cells, etc.) on the same plate.
(§8) 6. Data are reviewed in comparison with other tests done at the same time and a determination about activity is made.

[2] = system: CEM-Z; assay: XTT toxicity control, uninfected culture, CEM-Z
Procedure: as §1, §2, §3, §4, §5, §6, §7, §8

[3] = XTT toxicity control, uninfected culture, CEM-Z; settings: human, cem-z cells, read-out: Uninfected culture response
Procedure: as §1, §2, §3, §4, §5, §6, §7, §8

Question: For `O=[N+]([O-])c1ccccc1S(=O)(=O)c1ccccc1` [Compound 1, 1-Nitro-2-(phenylsulfonyl)benzene], which Conclusion ([1]; CEM-V) is on record?
Answer: Its Conclusion is “ACTIVE”.

Question: And the Infected culture response ([1]; CEM-V, 1.79 × 10^-6 Molar, 1.79 µM)?
Answer: Its Infected culture response is 9.3%.

Question: What about the Infected culture response ([1]; CEM-V, 1.79 × 10^-7 Molar, 0.179 µM) of the same compound?
Answer: Its Infected culture response is 8.7%.

Question: And the Infected culture response ([1]; CEM-V, 1.89 × 10^-4 Molar, 189 µM)?
Answer: Its Infected culture response is 87.3%.

Question: And the Infected culture response ([1]; CEM-V, 1.89 × 10^-5 Molar, 18.9 µM)?
Answer: Its Infected culture response is 110.5%.

Question: And the Infected culture response ([1]; CEM-V, 1.89 × 10^-6 Molar, 1.89 µM)?
Answer: The Infected culture response was 11.4%.

Question: What about the Infected culture response ([1]; CEM-V, 1.90 × 10^-7 Molar, 0.19 µM) of the same compound?
Answer: Its Infected culture response is 12.1%.

Question: What about the Infected culture response ([1]; CEM-V, 5.66 × 10^-6 Molar, 5.66 µM) of the same compound?
Answer: The Infected culture response was 36.6%.

Question: What about the Infected culture response ([1]; CEM-V, 5.67 × 10^-7 Molar, 0.567 µM) of the same compound?
Answer: The Infected culture response was 8.3%.

Question: What about the Infected culture response ([1]; CEM-V, 5.68 × 10^-8 Molar, 0.0568 µM) of the same compound?
Answer: Its Infected culture response is 9.4%.

Question: And the Infected culture response ([1]; CEM-V, 5.98 × 10^-5 Molar, 59.8 µM)?
Answer: The Infected culture response was 95.2%.

Question: What about the Infected culture response ([1]; CEM-V, 5.99 × 10^-6 Molar, 5.99 µM) of the same compound?
Answer: The Infected culture response was 65.3% and 90.9%.

Question: And the Infected culture response ([1]; CEM-V, 6.00 × 10^-7 Molar, 0.6 µM)?
Answer: The Infected culture response was 8.3%.

Question: What about the Infected culture response ([1]; CEM-V, 6.01 × 10^-8 Molar, 0.0601 µM) of the same compound?
Answer: The Infected culture response was 8.7%.

Question: What about the Conclusion ([1]; CEM-Z) of the same compound?
Answer: The Conclusion was “ACTIVE”.

Question: What about the Infected culture response ([1]; CEM-Z, 1.79 × 10^-6 Molar, 1.79 µM) of the same compound?
Answer: The Infected culture response was 47.1% and 26.4%.

Question: And the Infected culture response ([1]; CEM-Z, 5.65 × 10^-5 Molar, 56.5 µM)?
Answer: Its Infected culture response is 93.1%.

Question: What about the Infected culture response ([1]; CEM-Z, 5.66 × 10^-6 Molar, 5.66 µM) of the same compound?
Answer: The Infected culture response was 58.3%.

Question: And the viability at 17.9 µM ([1]; Human immunodeficiency virus 1, CEM-V, read-out: Infected culture response)?
Answer: The viability at 17.9 µM was 92.2%.

Question: What about the viability at 1.79 µM ([1]; Human immunodeficiency virus 1, CEM-V, 1.79 × 10^-6 Molar, read-out: Infected culture response) of the same compound?
Answer: The viability at 1.79 µM was 8%.

Question: What about the viability at 0.179 µM ([1]; Human immunodeficiency virus 1, CEM-V, 1.79 × 10^-7 Molar, read-out: Infected culture response) of the same compound?
Answer: Its viability at 0.179 µM is 10.3%.

Question: And the viability at 189 µM ([1]; Human immunodeficiency virus 1, CEM-V, 1.89 × 10^-4 Molar, read-out: Infected culture response)?
Answer: Its viability at 189 µM is 86%.

Question: And the viability at 18.9 µM ([1]; Human immunodeficiency virus 1, CEM-V, 1.89 × 10^-5 Molar, read-out: Infected culture response)?
Answer: Its viability at 18.9 µM is 100%.

Question: And the viability at 1.89 µM ([1]; Human immunodeficiency virus 1, CEM-V, 1.89 × 10^-6 Molar, read-out: Infected culture response)?
Answer: The viability at 1.89 µM was 18.2%.

Question: And the viability at 0.19 µM ([1]; Human immunodeficiency virus 1, CEM-V, 1.90 × 10^-7 Molar, read-out: Infected culture response)?
Answer: The viability at 0.19 µM was 14%.

Question: And the viability at 5.66 µM ([1]; Human immunodeficiency virus 1, CEM-V, 5.66 × 10^-6 Molar, read-out: Infected culture response)?
Answer: Its viability at 5.66 µM is 31.1%.

Question: What about the viability at 0.567 µM ([1]; Human immunodeficiency virus 1, CEM-V, 5.67 × 10^-7 Molar, read-out: Infected culture response) of the same compound?
Answer: Its viability at 0.567 µM is 10.6%.

Question: What about the viability at 0.0568 µM ([1]; Human immunodeficiency virus 1, CEM-V, 5.68 × 10^-8 Molar, read-out: Infected culture response) of the same compound?
Answer: Its viability at 0.0568 µM is 10.1%.

Question: What about the viability at 59.8 µM ([1]; Human immunodeficiency virus 1, CEM-V, 5.98 × 10^-5 Molar, read-out: Infected culture response) of the same compound?
Answer: The viability at 59.8 µM was 79.7%.

Question: What about the viability at 0.6 µM ([1]; Human immunodeficiency virus 1, CEM-V, 6.00 × 10^-7 Molar, read-out: Infected culture response) of the same compound?
Answer: The viability at 0.6 µM was 15.5%.

Question: And the viability at 0.0601 µM ([1]; Human immunodeficiency virus 1, CEM-V, 6.01 × 10^-8 Molar, read-out: Infected culture response)?
Answer: The viability at 0.0601 µM was 14.7%.

Question: What about the viability at 1.79 µM ([1]; Human immunodeficiency virus 1, CEM-V, dose printed 1.79 × 10^-6 Molar in the line between 5.66 × 10^-6 and 5.65 × 10^-5, read-out: Infected culture response) of the same compound?
Answer: Its viability at 1.79 µM is 53.1%.

Question: What about the viability at 17.9 µM ([1]; Human immunodeficiency virus 1, CEM-Z, read-out: Infected culture response) of the same compound?
Answer: The viability at 17.9 µM was 85.7%.

Question: What about the viability at 56.5 µM ([1]; Human immunodeficiency virus 1, CEM-Z, 5.65 × 10^-5 Molar, read-out: Infected culture response) of the same compound?
Answer: Its viability at 56.5 µM is 92.3%.

Question: What about the viability at 5.66 µM ([1]; Human immunodeficiency virus 1, CEM-Z, 5.66 × 10^-6 Molar, read-out: Infected culture response) of the same compound?
Answer: Its viability at 5.66 µM is 74.5%.

Question: What about the viability at 1.79 µM ([1]; Human immunodeficiency virus 1, CEM-Z, dose printed 1.79 × 10^-6 Molar in the line between 5.66 × 10^-6 and 5.65 × 10^-5, read-out: Infected culture response) of the same compound?
Answer: The viability at 1.79 µM was 91.3%.

Question: What about the Uninfected culture response ([2]; 1.78 × 10^-4 Molar, 178 µM) of the same compound?
Answer: The Uninfected culture response was 72.1%.

Question: And the Uninfected culture response ([2]; 1.79 × 10^-5 Molar, 17.9 µM)?
Answer: The Uninfected culture response was 103.0%.

Question: What about the Uninfected culture response ([2]; 1.79 × 10^-6 Molar, 1.79 µM) of the same compound?
Answer: Its Uninfected culture response is 99.7%.

Question: What about the Uninfected culture response ([2]; 1.79 × 10^-7 Molar, 0.179 µM) of the same compound?
Answer: Its Uninfected culture response is 102.5%.

Question: And the Uninfected culture response ([2]; 5.65 × 10^-5 Molar, 56.5 µM)?
Answer: Its Uninfected culture response is 101.8%.

Question: What about the Uninfected culture response ([2]; 5.66 × 10^-6 Molar, 5.66 µM) of the same compound?
Answer: The Uninfected culture response was 100.0%.

Question: And the Uninfected culture response ([2]; 5.67 × 10^-7 Molar, 0.567 µM)?
Answer: Its Uninfected culture response is 99.8%.

Question: What about the Uninfected culture response ([2]; 5.68 × 10^-8 Molar, 0.0568 µM) of the same compound?
Answer: Its Uninfected culture response is 104.3%.

Question: What about the IC50 ([2]; uninfected culture (toxicity)) of the same compound?
Answer: The IC50 was > 178 µM.

Question: And the viability at 17.9 µM ([3]; 1.79 × 10^-5 Molar)?
Answer: Its viability at 17.9 µM is 101%.

Question: And the viability at 1.79 µM ([3]; 1.79 × 10^-6 Molar)?
Answer: Its viability at 1.79 µM is 97.9%.

Question: What about the viability at 0.179 µM ([3]; 1.79 × 10^-7 Molar) of the same compound?
Answer: Its viability at 0.179 µM is 101%.

Question: What about the viability at 56.5 µM ([3]; 5.65 × 10^-5 Molar) of the same compound?
Answer: The viability at 56.5 µM was 103%.

Question: And the viability at 5.66 µM ([3]; 5.66 × 10^-6 Molar)?
Answer: Its viability at 5.66 µM is 98.7%.

Question: And the viability at 0.567 µM ([3]; 5.67 × 10^-7 Molar)?
Answer: The viability at 0.567 µM was 99.6%.

Question: What about the viability at 0.0568 µM ([3]; 5.68 × 10^-8 Molar) of the same compound?
Answer: Its viability at 0.0568 µM is 101%.
